Source: PMC7136958, “Targeting the pregnane X receptor using microbial metabolite mimicry” (EMBO Molecular Medicine, 2020)
“And” between values parts separate entries of the source, which are not always exact repeats. Equal entries are not always repeated.

Columns and labels:
[1] = tested on: PXR target genes in LS174T PXR-KO cells; assay: PXR target gene mRNA in LS174T PXR-KO cells; format: cell-based, human
Procedure: Figure EV5 LS174T PXR‐knockout (KO) cells are not responsive to PXR ligands • Expression of CYP1A1 and CYP3A4 mRNA in PXR‐knockout and wild‐type LS174T. […] Experiment was performed in 4 independent cell passages (6th, 8th, 10th, and 12th). The mRNA expression of CYP1A1 and CYP3A4 mRNA was determined by RT–PCR, and data were normalized to GAPDH mRNA level. (a) CYP1A1 mRNA. (b) CYP3A4 mRNA. Data are expressed as mean ± SD. • Immunoblot for PXR protein expression in PXR wild‐type and knockout (KO) cells. Experiment was performed in nine independent cell passages (P). • Fold mRNA expression of PXR target genes. Each tissue PCR was repeated in quadruplicate. The expression was normalized to internal control, GAPDH. The entire experiment was repeated n > 2 for reproducibility. The data shown are one representative experiment. Source data are available online for this figure.
Briefly, cells were first tested negative for mycoplasma.

[2] = tested on: NF-κB; assay: TNF-α-induced NF-κB reporter assay in LS180 cells with or without PXR co-transfection; format: cell-based, human; conditions: for TNF-α-induced NF-κB reporter activity: 0.1 to 25 μM, PXR-untransfected and PXR-transfected cells
Procedure: NF‐κB reporter assays were performed using LS180 cells. […] Thereafter, cells were lysed, and Nano luciferase activity was measured using a Tecan Infinite M200 Pro plate reader (Schoeller Instruments, Czech Republic).

[3] = target: T1, hPXR (Homo sapiens, UniProt O75469); assay: biochemical
T1 sequence (O75469 111-434 limits assumed): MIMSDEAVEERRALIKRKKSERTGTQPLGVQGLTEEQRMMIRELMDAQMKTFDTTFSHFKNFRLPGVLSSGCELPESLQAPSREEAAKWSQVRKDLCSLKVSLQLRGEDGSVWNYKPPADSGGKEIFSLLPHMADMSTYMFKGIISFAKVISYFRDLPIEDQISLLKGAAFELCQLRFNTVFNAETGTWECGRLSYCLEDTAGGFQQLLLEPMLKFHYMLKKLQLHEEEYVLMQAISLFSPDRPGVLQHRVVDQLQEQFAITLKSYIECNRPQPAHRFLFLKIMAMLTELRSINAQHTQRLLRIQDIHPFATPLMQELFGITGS
Procedure: All PXR‐binding assays were performed as two independent experiments, each with a minimum of four replicates. Final IC50 was obtained by processing the data with GraphPad Prism 6 using standard curve interpolation (sigmoidal, 4PL, variable slope).

[4] = NFkB transfected LS180 cells, 8th pass, EXP1, 0,1 uM + TNFa 5 ng/ml
[5] = NFkB transfected LS180 cells, 8th pass, EXP1, 1 uM + TNFa 5 ng/ml
[6] = NFkB transfected LS180 cells, 8th pass, EXP1, 10 uM + TNFa 5 ng/ml
[7] = NFkB transfected LS180 cells, 8th pass, EXP1, 25 uM + TNFa 5 ng/ml
[8] = NFkB transfected LS180 cells, 13th pass, EXP2, 0,1 uM + TNFa 5 ng/ml
[9] = NFkB transfected LS180 cells, 13th pass, EXP2, 1 uM + TNFa 5 ng/ml
[10] = NFkB transfected LS180 cells, 13th pass, EXP2, 10 uM + TNFa 5 ng/ml
[11] = NFkB transfected LS180 cells, 13th pass, EXP2, 25 uM + TNFa 5 ng/ml
[12] = NFkB+PXR transfected LS180 cells, 8th pass, EXP1, 0,1 uM + TNFa 5 ng/ml
[13] = NFkB+PXR transfected LS180 cells, 8th pass, EXP1, 1 uM + TNFa 5 ng/ml
[14] = NFkB+PXR transfected LS180 cells, 8th pass, EXP1, 10 uM + TNFa 5 ng/ml
[15] = NFkB+PXR transfected LS180 cells, 8th pass, EXP1, 25 uM + TNFa 5 ng/ml
[16] = NFkB+PXR transfected LS180 cells, 13th pass, EXP2, 0,1 uM + TNFa 5 ng/ml
[17] = NFkB+PXR transfected LS180 cells, 13th pass, EXP2, 1 uM + TNFa 5 ng/ml
[18] = NFkB+PXR transfected LS180 cells, 13th pass, EXP2, 10 uM + TNFa 5 ng/ml
[19] = NFkB+PXR transfected LS180 cells, 13th pass, EXP2, 25 uM + TNFa 5 ng/ml

| Compound | PXR target gene induction [1] | TNF-α-induced NF-κB reporter activity [2] | NFkB reporter luminescence, aver [2, 4] | NFkB reporter, % max [2, 4] [%] | NFkB reporter luminescence, aver [2, 5] | NFkB reporter, % max [2, 5] [%] | NFkB reporter luminescence, aver [2, 6] | NFkB reporter, % max [2, 6] [%] | NFkB reporter luminescence, aver [2, 7] | NFkB reporter, % max [2, 7] [%] | NFkB reporter luminescence, aver [2, 8] | NFkB reporter, % max [2, 8] [%] | NFkB reporter luminescence, aver [2, 9] | NFkB reporter, % max [2, 9] [%] | NFkB reporter luminescence, aver [2, 10] | NFkB reporter, % max [2, 10] [%] | NFkB reporter luminescence, aver [2, 11] | NFkB reporter, % max [2, 11] [%] | NFkB reporter luminescence, aver [2, 12] | NFkB reporter, % max [2, 12] [%] | further results |
| --- | --- | --- | --- | --- | --- | --- | --- | --- | --- | --- | --- | --- | --- | --- | --- | --- | --- | --- | --- | --- | --- |
| O=C(c1ccncc1)c1cc2ccccc2n1S(=O)(=O)c1ccccc1 [FKK5, (1-(phenylsulfonyl)-1H-indol-2-yl)(pyridin-4-yl)methanone] | did not induce | significantly reduced | 154648.3 | 100.0 | 174112.0 | 112.6 | 177548.0 | 114.8 | 128563.8 | 83.1 | 96416.5 | 100.0 | 100061.8 | 103.8 | 94755.5 | 98.3 | 73575.7 | 76.3 | 119827.8 | 100.0 | NFkB reporter luminescence, aver [2, 13]: 119180.5; NFkB reporter, % max [2, 13]: 99.5%; NFkB reporter luminescence, aver [2, 14]: 105570.7; NFkB reporter, % max [2, 14]: 88.1%; NFkB reporter luminescence, aver [2, 15]: 87454.8; NFkB reporter, % max [2, 15]: 73.0%; NFkB reporter luminescence, aver [2, 16]: 54048.0; NFkB reporter, % max [2, 16]: 100.0%; NFkB reporter luminescence, aver [2, 17]: 44601.5; NFkB reporter, % max [2, 17]: 82.5%; NFkB reporter luminescence, aver [2, 18]: 31230.0; NFkB reporter, % max [2, 18]: 57.8%; NFkB reporter luminescence, aver [2, 19]: 30160.0; NFkB reporter, % max [2, 19]: 55.8%; IC50 [3]: 3.77 µM |
| C#CCC(O)(c1ccncc1)c1cc2ccccc2n1S(=O)(=O)c1ccccc1 (stereo not shown) [FKK6] | did not induce | significantly reduced | 151491.7 | 100.0 | 188054.3 | 124.1 | 206680.7 | 136.4 | 153657.3 | 101.4 | 110498.5 | 100.0 | 114693.5 | 103.8 | 113662.5 | 102.9 | 88975.5 | 80.5 | 128584.0 | 100.0 | NFkB reporter luminescence, aver [2, 13]: 112418.0; NFkB reporter, % max [2, 13]: 87.4%; NFkB reporter luminescence, aver [2, 14]: 100484.8; NFkB reporter, % max [2, 14]: 78.1%; NFkB reporter luminescence, aver [2, 15]: 94342.8; NFkB reporter, % max [2, 15]: 73.4%; NFkB reporter luminescence, aver [2, 16]: 50028.3; NFkB reporter, % max [2, 16]: 100.0%; NFkB reporter luminescence, aver [2, 17]: 38521.5; NFkB reporter, % max [2, 17]: 77.0%; NFkB reporter luminescence, aver [2, 18]: 24979.3; NFkB reporter, % max [2, 18]: 49.9%; NFkB reporter luminescence, aver [2, 19]: 26644.5; NFkB reporter, % max [2, 19]: 53.3%; IC50 [3]: 1.56 µM and ~1.56 µM |
